# Read-outs that look alike come from different tables or passages of the source.
# Experiments:
# [1] = tested on: P. falciparum chloroquine-sensitive D10 strain; experiment: pLDH in vitro anti-malarial assay, D10 strain; type: cell-based, Plasmodium falciparum; conditions: for IC50: Plasmodium falciparum; for Anti-malarial activity (in words): D10 strain, SAR discussion
# Protocol: (§1) Asexual P. falciparum chloroquine-sensitive 3D7 and D10 cultures, as well as chloroquine-resistant K1 strain cultures, were maintained and synchronized according to established methods in an atmosphere consisting of 5% oxygen, 5% carbon dioxide and 90% nitrogen. The parasites were maintained at a 5% haematocrit in RPMI 1640 medium supplemented with 25 mM HEPES, 22 mM glucose, 0.0088% hypoxanthine, 40 ug/mL gentamycin (all Sigma) and 0.5% Albumax (Invitrogen).
# (§2) The anti-plasmodial activities of the extracts and pure compounds were determined against the chloroquine-sensitive D10 and the chloroquine-resistant K1 strains via the parasite lactate dehydrogenase (pLDH) assay. All test substances were stored at -20°C prior to testing. […] Chloroquine diphosphate (Sigma) was used as a reference drug in all experiments. The test substances were evaluated as ten serial two-fold dilutions (0.2 - 100 μg/mL final concentration) in medium (two replicates per concentration point) in duplicate wells. […] Test solutions were mixed with suspensions of infected human red blood cells to achieve a final haematocrit of 1% and parasitaemia of 2% and incubated for 48 h in microtitre plates (250 uL final volume). Incubation conditions were as described above for the routine maintenance of the P. falciparum cultures. The IC50 values, serving as a measure for anti-plasmodial activities, were calculated by non-linear regression dose-response analysis using GraphPad Prism v.4.0 software.
# [2] = tested on: P. falciparum chloroquine-resistant K1 strain; experiment: microbe, parasite or virus in culture; type: cell-based; conditions: Plasmodium falciparum
# Protocol: as §1, §2
# [3] = tested on: Chinese hamster ovary (CHO) cell line; experiment: MTT in vitro cytotoxicity assay; type: cell-based; conditions: for IC50: Cricetulus griseus, read-out: CHO IC50 (μM) n = 2; for Mammalian toxicity, CHO (in words): SAR discussion
# Protocol: Compounds were tested for in vitro cytotoxicity against a Chinese hamster ovary (CHO) cell line using the MTT [3-(4,5-dimethylthiazol-2-yl)-2,5-diphenyltetrazolium bromide] assay. The CHO cells were cultured in DMEM: Hams F-12 medium (1:1) supplemented with 10% heat-inactivated foetal calf serum (FCS) and gentamycin ([…]) (Highveld Biological, RSA). Samples were dissolved in 10% MeOH. Stock solutions (2 mg/mL) were prepared and were stored at -20°C until use. The samples were added to CHO cells as five ten-fold serial dilutions ranging from 100 - 0.01 μg/mL. A serial dilution of emetine (100 - 0.001 μg/mL) was used as a positive control. Cells were seeded in 96-well plates at a concentration of 10^5/mL (100 μL per well) and incubated at 37°C for 24 h in a humidified 5% CO2-air atmosphere. The medium was subsequently aspirated from the wells and replaced with 200 μL of the test compound dilutions. The microplates were incubated at 37°C for 48 h, after which 25 μL of sterile MTT (5 mg/mL in PBS) was added to each well and incubation was continued for 4 h at 37°C. Formazan crystals formed by viable cells were dissolved in DMSO and quantitated by measuring absorbance at 540 nm in a microtitre plate reader (Cambridge Technologies). Cell viabilities were calculated relative to reference wells containing no test compounds (positive cell controls) and no cells (background controls), plotted against log[test sample] and IC50 values derived by non-linear regression analysis using GraphPad Prism v.4.0 software.
# P. falciparum 3D7 [4] = experiment: Dose-response curves on P. falciparum 3D7 (IC99 for treatment); type: cell-based, Plasmodium falciparum; conditions: P. falciparum 3D7, determined from dose-response curves
# Protocol: as §1
# A morphological comparison between compound 1 treated versus untreated parasites was performed to assess the effect of treatment and to establish sampling times, by examining the stage-specific progression of parasites across the intra-erythrocytic development cycle. The solvent (DMSO) or compound 1 was added in the window shortly after red blood cell (RBC) invasion and parasite development was monitored 6 hourly over a 48 h period using conventional Giemsa-stained smears. Fresh cultures were scaled up to 50 ml (5% hematocrit, 10% parasitemia), synchronized twice and treated with compound 1 in the window around invasion. Fifteen milliliters of culture was harvested at each of the stages used for transcriptional analyses (2, 6 and 12 hpt). Similar volumes were harvested from untreated P. falciparum 3D7 control cultures at the same time points. Parallel drug treatments were conducted, serving as biological replicates. […]
# P. falciparum 3D7 [5] = experiment: Morphological analysis of treated ring-stage parasites (Giemsa smears); type: cell-based, Plasmodium falciparum; conditions: 3D7, treated at early ring stage with 12.5 μM, followed over 48 h
# Protocol: A morphological comparison between compound 1 treated versus untreated parasites was performed to assess the effect of treatment and to establish sampling times, by examining the stage-specific progression of parasites across the intra-erythrocytic development cycle. The solvent (DMSO) or compound 1 was added in the window shortly after red blood cell (RBC) invasion and parasite development was monitored 6 hourly over a 48 h period using conventional Giemsa-stained smears. Fresh cultures were scaled up to 50 ml (5% hematocrit, 10% parasitemia), synchronized twice and treated with compound 1 in the window around invasion. Fifteen milliliters of culture was harvested at each of the stages used for transcriptional analyses (2, 6 and 12 hpt). Similar volumes were harvested from untreated P. falciparum 3D7 control cultures at the same time points. Parallel drug treatments were conducted, serving as biological replicates. RNA was extracted from the frozen erythrocyte pellets as described.
# A morphological analysis was performed with dehydrobrachylaenolide to ascertain the point during intra-erythrocytic development at which P. falciparum 3D7 growth was affected. […] Based on these morphological observations and the apparent rapid effect of dehydrobrachylaenolide on P. falciparum development, sampling times for transcriptional analysis were subsequently determined as 2, 6 and 12 hpt. […]
# NCI's 60-cell line panel = tested on: NCI's 60-cell line panel; set-up: method as in earlier work; conditions: selectivity trend towards the leukaemia sub-panel; cited from earlier work
# [6] = tested on: induction of intracellular adhesion molecule-1 (ICAM-1); set-up: method as in PMID 12762788; conditions: cited from earlier work
# [7] = D10, 48 h, read-out: D10 IC50 (μM) n = 8
# [8] = K1, 48 h, read-out: K1 IC50 (μM) n = 4
# [9] = D10, read-out: D10 strain IC50 (μM) n = 2
# [10] = K1, read-out: K1 strain IC50 (μM) n = 2
# [11] = read-out: D10 strain IC50 (μM) n = 2, Table 2, D10, pLDH assay, parent compound n = 8
compound,measurement,setting,value
"CCN(CC)CCCC(C)Nc1ccnc2cc(Cl)ccc12 (centres unmarked) [Chloroquine, Chloroquine diphosphate, reference compound]",IC50,[1]; [7],0.038 µM
same,IC50,[2]; [8],0.2 µM
same,IC50,"[3]; CHO, 48 h",35.8 µM
"C=C1C(=O)C=C[C@]2(C)CC[C@H]3C(=C)C(=O)O[C@H]3[C@@H]12 [Compound 1, 3-oxoeudesma-1,4(15),11(13)-triene-12,6α-lide]",IC50,[1]; [7],1.86 ± 0.254 µM
same,IC50,[1]; [9],1.86 µM
same,IC50,"[1]; D10, read-out: IC50 against D10 strain",0.455 µg/mL
same,IC50,[2]; [8],4.09 ± 0.579 µM
same,IC50,"[2]; K1, read-out: IC50 against K1 strain",1 µg/mL
same,IC50,[2]; [10],4.09 µM
same,IC50,"[3]; CHO, 48 h",17.2 µM
same,IC50,[3]; CHO,17.2 µM
same,IC99 (treatment concentration),P. falciparum 3D7 [4],12.5 µM
same,Morphological effect on intra-erythrocytic development,P. falciparum 3D7 [5],Treated parasites remained arrested in the ring phase
same,Anti-cancer activity (in words),NCI's 60-cell line panel,significant anti-cancer activity
same,Activity toward ICAM-1 induction (in words),[6],inhibitory activity
"C[C@@H]1C(=O)O[C@H]2[C@H]1CC[C@@]1(C)CCC(=O)[C@H](C)[C@H]21 [Compound 4, (3S,3aS,5aS,9R,9aS,9bS)-3,5a,9-trimethyl-octahydronaphtho[1,2-b]furan-2,8(3H,9bH)-dione]",Anti-malarial activity (in words),[1],lacking both activity and toxicity
same,IC50,[1]; [11],> 40 µM
same,"Mammalian toxicity, CHO (in words)",[3]; CHO cells,lacking both activity and toxicity
same,IC50,"[3]; Table 2, CHO cells, MTT",> 400 µM
"C=C1C(=O)O[C@@H]2C3=C(C)C(=O)C=C[C@]3(C)CC[C@@H]12 [Compound 2, (3aS,5aS,9bS)-5a,9-dimethyl-3-methylene-3a,4,5,5a-tetrahydronaphtho[1,2-b]furan-2,8(3H,9bH)-dione]",Anti-malarial activity (in words),[1],six-fold less active
same,IC50,[1]; [9],11.5 µM
same,IC50,[2]; [10],9.05 µM
same,IC50,[3]; CHO,7.01 µM
"C=C1C(=O)O[C@@H]2[C@H]3[C@@H](C)C(=O)C=C[C@]3(C)CC[C@@H]12 [Compound 6, (3aS,5aS,9R,9aS,9bS)-5a,9-dimethyl-3-methylene-3a,4,5,5a,9,9a-hexahydronaphtho[1,2-b]furan-2,8(3H,9bH)-dione]",Anti-malarial activity (in words),[1],no significant improvement in anti-malarial activity
same,IC50,[1]; [9],16.9 µM
same,"Mammalian toxicity, CHO (in words)",[3]; CHO cells,increased mammalian cell toxicity
same,IC50,[3]; CHO,41.9 µM
"C=C1C(=O)C[C@H]2C1CCC1(C)CCC(=O)C(C)C21 (stereo partly drawn) [Compound 5, (9bS)-5a,9-Dimethyl-3-methyleneoctahydro-1H-cyclopenta[a]naphthalene-2,8(3H,9bH)-dione]",Anti-malarial activity (in words),[1],moderate anti-malarial activity
same,IC50,[1]; [11],22.1 µM
same,"Mammalian toxicity, CHO (in words)",[3]; CHO cells,substantially reduced
same,IC50,"[3]; Table 2, CHO cells, MTT",124 µM
"CC1=C2[C@H]3OC(=O)[C@@H](C)[C@@H]3CC[C@@]2(C)C=CC1=O [Compound 3, santonin]",Anti-malarial activity (in words),[1],devoid of any significant anti-malarial activity
same,IC50,[1]; [9],> 40 µM
same,"Mammalian toxicity, CHO (in words)",[3]; CHO cells,devoid of any significant anti-malarial activity or mammalian toxicity
same,IC50,[3]; CHO,> 400 µM

# — publication PMC3200184, “In vitro anti-plasmodial activity of Dicoma anomala subsp. gerrardii (Asteraceae): identification of its main active constituent, structure-activity relationship studies and gene expression profiling” (Malaria Journal, 2011)
